Series [1] deals with velvetleaf (Abutilon theophrasti). Briefly: Postemergence herbicidal activity. It counts as in vivo. The following applies: post-emergent, 140 g ai/ha, after 14 days; for pest or weed control at 140 g/ha: Abutilon theophrasti, post-emergence, 336 h, read-out: % Control ABUTH. As for the experimental part:
(§1) Seeds or nutlets of the desired test plant species were planted in Sun Gro MetroMix® 306 planting mixture, which typically has a pH of 6.0 to 6.8 and an organic matter content of about 30 percent, in plastic pots with a surface area of 64 square centimeters. When required to ensure good germination and healthy plants, a fungicide treatment and/or other chemical or physical treatment was applied. The plants were grown for 7-21 days in a greenhouse with an approximate 15 hour photoperiod which was maintained at about 23-29° C. during the day and 22-28° C. during the night. Nutrients and water were added on a regular basis and supplemental lighting was provided with overhead metal halide 1000-Watt lamps as necessary. The plants were employed for testing when they reached the first or second true leaf stage. […] The concentrated stock solutions obtained were diluted with 20 mL of an aqueous mixture containing acetone, water, isopropyl alcohol, DMSO, Atplus 411F crop oil concentrate, and Triton® X-155 surfactant in a 48.5:39:10:1.5:1.0:0.02 v/v ratio to obtain spray solutions containing the highest application rates. […] Compound requirements are based upon a 12 mL application volume at a rate of 187 L/ha. Formulated compounds were applied to the plant material with an overhead Mandel track sprayer equipped with a […] nozzles calibrated to deliver 187 L/ha over an application area of 0.503 square meters at a spray height of 18 inches (43 cm) above the average plant canopy height. Control plants were sprayed in the same manner with the solvent blank. The treated plants and control plants were placed in a greenhouse as described above and watered by sub-irrigation to prevent wash-off of the test compounds. […] By applying the well-accepted probit analysis as described by J. Berkson in Journal of the American Statistical […], 48, 565 (1953) and by D.

In series [2] the test system is redroot pigweed (Amaranthus retroflexus). The experiment in a line: Postemergence herbicidal activity. It counts as in vivo. The following applies: post-emergent, 140 g ai/ha, after 14 days; for pest or weed control at 140 g/ha: Amaranthus retroflexus, post-emergence, 336 h, read-out: % Control AMARE. The method, then: as §1
Series [3] concerns lambsquarter (Chenopodium album). Briefly: Postemergence herbicidal activity. It counts as in vivo. The following applies: post-emergent, 140 g ai/ha, after 14 days; for pest or weed control at 140 g/ha: Chenopodium album, post-emergence, 336 h, read-out: % Control CHEAL. As for the experimental part: as §1

Each structure is given as a SMILES string.

In general, melting point refers to the temperature, or range, at which the solid turns liquid.

Turning to `COC(=O)c1nc(-c2ccc(Cl)c(C#N)c2F)cc(N)c1Cl` [Compound 2, 4-Amino-3-chloro-6-(4-chloro-3-cyano-2-fluorophenyl)pyridine-2-carboxylic acid methyl ester], the melting point is 189 to 190 °C. In addition, in series [1], the pest or weed control at 140 g/ha came out at 85%. Also, the pest or weed control at 140 g/ha in series [2] was 90%. In addition, in series [3], the pest or weed control at 140 g/ha was determined as 80%.
For the molecule `COC(=O)c1nc(-c2ccc(Cl)c(OCC(F)F)c2F)cc(N)c1Cl` [Compound 8, 4-Amino-3-chloro-6-[4-chloro-2-fluoro-3-(2,2-difluoroethoxy)phenyl]pyridine-2-carboxylic acid methyl ester], the melting point lay within 134 to 136 °C. Also, the pest or weed control at 140 g/ha in series [1] stood at 80%. In addition, the pest or weed control at 140 g/ha in series [2] was 100%. For the same molecule, the pest or weed control at 140 g/ha in series [3] amounted to 95%.
For the molecule `CCOc1cc(-c2cc(N)c(Cl)c(C(=O)OC)n2)c(F)cc1Cl` [Compound 9, 4-Amino-3-chloro-6-(4-chloro-2-fluoro-5-ethoxyphenyl)pyridine-2-carboxylic acid methyl ester], the melting point lay in the range of 115 to 116 °C. In series [1], the pest or weed control at 140 g/ha was 85%. The pest or weed control at 140 g/ha in series [2] worked out at 100%. Also, the pest or weed control at 140 g/ha in series [3] was 100%.
Take `COCCOc1c(Cl)ccc(-c2cc(N)c(Cl)c(C(=O)OC)n2)c1F` [Compound 11, 4-Amino-3-chloro-6-[4-chloro-2-fluoro-3-(methoxyethoxy)phenyl]pyridine-2-carboxylic acid methyl ester]: the melting point is 89 to 90 °C. Also, the pest or weed control at 140 g/ha in series [1] was 90%. The pest or weed control at 140 g/ha in series [2] amounted to 95%. The pest or weed control at 140 g/ha in series [3] amounted to 80%.
Regarding `COC(=O)c1nc(-c2cc(OC)c(Cl)cc2F)cc(NC(C)=O)c1Cl` [Compound 18, 4-acetylamino-3-chloro-6-(4-chloro-2-fluoro-5-methoxy-phenyl)pyridine-2-carboxylic acid methyl ester], the melting point lay in the range of 180 to 182 °C.
For `COC(=O)c1nc(-c2ccc(Cl)c(C)c2F)cc(NC(C)=O)c1Cl` [Compound 19, 4-Acetylamino-3-chloro-6-(4-chloro-2-fluoro-3-methylphenyl)pyridine-2-carboxylic acid methyl ester], the melting point lay within 151 to 152 °C.
Molecule `COC(=O)c1nc(-c2ccc(Cl)c(OC)c2F)cc(NC(C)=O)c1Cl` [Compound 20, 4-Acetylamino-3-chloro-6-(4-chloro-2-fluoro-3-methoxyphenyl)pyridine-2-carboxylic acid methyl ester] gave a melting point of 159 to 160 °C.
`COC(=O)c1nc(-c2ccc(F)c(C)c2F)cc(NC(C)=O)c1Cl` [Compound 23, 4-acetylamino-3-chloro-6-(2,4-difluoro-3-methylphenyl)-pyridine-2-carboxylic acid methyl ester] displayed a melting point of 152 to 153 °C.
In turn, `COC(=O)c1nc(-c2ccc(Cl)c(C)c2Cl)cc(NC(C)=O)c1Cl` [Compound 24, 4-Acetylamino-3-chloro-6-(2,4-dichloro-3-methylphenyl)pyridine-2-carboxylic acid methyl ester] displayed a melting point of 172 to 174 °C.
In turn, `COC(=O)c1nc(-c2ccc(Cl)c(C(F)F)c2Cl)cc(NC(C)=O)c1Cl` [Compound 30, 4-Acetylamino-3-chloro-6-[2,4-dichloro-3-(difluoromethyl)phenyl]pyridine-2-carboxylic acid, methyl ester] displayed a melting point of 152 to 153 °C. In addition, the pest or weed control at 140 g/ha in series [1] turned out to be 100%. Moreover, the pest or weed control at 140 g/ha in series [2] amounted to 90%. For the same molecule, the pest or weed control at 140 g/ha in series [3] is 95%.
`COC(=O)c1nc(-c2ccc(F)c(F)c2F)cc(NC(C)=O)c1Cl` [Compound 33, 4-Acetylamino-3-chloro-6-(2,3,4-trifluorophenyl)pyridine-2-carboxylic acid, methyl ester] had a melting point of 169 to 171 °C. Also, the pest or weed control at 140 g/ha in series [1] was found to be 95%. Also, in series [2], the pest or weed control at 140 g/ha amounted to 95%. For the same molecule, the pest or weed control at 140 g/ha in series [3] was determined as 90%.
`COCOc1c(Cl)ccc(-c2cc(NC(C)=O)c(Cl)c(C(=O)OC)n2)c1F` [Compound 34, 4-Acetylamino-3-chloro-6-(4-chloro-2-fluoro-3-methoxymethoxy-phenyl)pyridine-2-carboxylic acid, methyl ester] had a melting point of 122 to 123 °C.
Turning to `COC(=O)c1nc(-c2c(F)cc(Cl)c(OC)c2F)cc(NC(C)=O)c1Cl` [Compound 40, 4-Acetylamino-3-chloro-6-(4-chloro-2,6-difluoro-3-methoxyphenyl)pyridine-2-carboxylic acid, methyl ester], the melting point lay in the range of 144 to 144.5 °C. In series [1], the pest or weed control at 140 g/ha was 95%. Moreover, in series [2], the pest or weed control at 140 g/ha was found to be 95%. Moreover, in series [3], the pest or weed control at 140 g/ha came to 100%.
In turn, `COC(=O)c1nc(-c2ccc(F)c(C)c2F)cc(N)c1Cl` [Compound 47, 4-Amino-3-chloro-6-(2,4-difluoro-3-methylphenyl)pyridine-2-carboxylic acid methyl ester] gave a melting point of 129 to 130 °C. In addition, the pest or weed control at 140 g/ha in series [1] was 100%. Further, the pest or weed control at 140 g/ha in series [2] was found to be 100%. Besides, the pest or weed control at 140 g/ha in series [3] was 100%.
For `COC(=O)c1nc(-c2ccc(F)c(F)c2F)cc(N)c1Cl` [Compound 67, 4-Amino-3-chloro-6-(2,3,4-trifluorophenyl)pyridine-2-carboxylic acid, methyl ester], the melting point is 163 to 164 °C. In addition, the pest or weed control at 140 g/ha in series [1] is 100%. In series [2], the pest or weed control at 140 g/ha was found to be 100%. The pest or weed control at 140 g/ha in series [3] was 100%.
Regarding `COCOc1c(Cl)ccc(-c2cc(N)c(Cl)c(C(=O)OC)n2)c1F` [Compound 68, 4-Amino-3-chloro-6-(4-chloro-2-fluoro-3-methoxymethoxyphenyl)pyridine-2-carboxylic acid, methyl ester], the melting point amounted to 99 °C. Besides, the pest or weed control at 140 g/ha in series [1] came to 95%. Further, the pest or weed control at 140 g/ha in series [2] is 100%. In addition, the pest or weed control at 140 g/ha in series [3] was determined as 100%.
In turn, `COC(=O)c1nc(-c2ccc(Cl)c(OC(F)F)c2F)cc(N)c1Cl` [Compound 69, 4-Amino-3-chloro-6-(4-chloro-2-fluoro-3-difluoromethoxyphenyl)pyridine-2-carboxylic acid, methyl ester] showed a melting point of 164 °C. In addition, the pest or weed control at 140 g/ha in series [1] worked out at 100%. Moreover, the pest or weed control at 140 g/ha in series [2] turned out to be 100%. For the same molecule, the pest or weed control at 140 g/ha in series [3] turned out to be 100%.
Turning to `COC(=O)c1nc(-c2ccc(C(F)F)c(OC)c2Cl)cc(N)c1Cl` [Compound 79, 4-Amino-3-chloro-6-(2-chloro-4-difluoromethyl-3-methoxyphenyl)pyridine-2-carboxylic acid, methyl ester], the melting point was 134 to 136 °C. Also, in series [1], the pest or weed control at 140 g/ha is 95%. Also, the pest or weed control at 140 g/ha in series [2] came to 90%. In addition, in series [3], the pest or weed control at 140 g/ha came to 100%.
With `COC(=O)c1nc(-c2sc(F)c(CF)c2Cl)cc(N)c1Cl` [Compound 85, 4-amino-3-chloro-6-(4-chloro-2-fluoro-3-fluoromethylthiophenyl)pyridine-2-carboxylic acid methyl ester], the melting point is 104 to 105 °C.
For the molecule `CCOc1cc(-c2cc(N)c(Cl)c(C(=O)O)n2)c(F)cc1Cl` [Compound 109, 4-Amino-3-chloro-6-(4-chloro-2-fluoro-5-ethoxyphenyl)pyridine-2-carboxylic acid], the melting point is 178 to 179 °C (dec.).
Regarding `CCCCOc1c(Cl)ccc(-c2cc(N)c(Cl)c(C(=O)O)n2)c1F` [Compound 124, 4-Amino-3-chloro-6-(4-chloro-3-butoxy-2-fluorophenyl)pyridine-2-carboxylic acid], the melting point is 157 to 158 °C (dec.).
Take `CC(C)(F)c1c(Cl)ccc(-c2cc(N)c(Cl)c(C(=O)O)n2)c1Cl` [Compound 127]: in series [1], the “% Control ABUTH” value was found to be 90%. In series [2], the “% Control AMARE” value turned out to be 100%. Further, in series [3], the “% Control CHEAL” value came to 100%.
In the case of `CCc1c(Cl)ccc(-c2cc(N)c(Cl)c(C(=O)O)n2)c1F` [Compound 128, 4-Amino-3-chloro-6-(4-chloro-3-ethyl-2-fluorophenyl)pyridine-2-carboxylic acid], the melting point is 192 to 193 °C (dec.).
As for `COCOc1c(Cl)ccc(-c2cc(N)c(Cl)c(C(=O)O)n2)c1F` [Compound 132, 4-Amino-3-chloro-6-(4-chloro-2-fluoro-3-methoxymethoxyphenyl)pyridine-2-carboxylic acid], the melting point is 159 °C (dec.).

The values above are taken from US20070179060A1, “6-(Poly-substituted aryl)-4-aminopicolinates and their use as herbicides” (priority 2006, published 2007).
